# Data reported in the Kinase Knowledgebase extract (Sharma et al. 2016).
# Biological target: ROCK2 (human) (UniProt O75116)
# Assay: Inhibition of ROCK2 Kinase Activity
# Sequence of ROCK2 (human) (O75116 whole entry, looked up): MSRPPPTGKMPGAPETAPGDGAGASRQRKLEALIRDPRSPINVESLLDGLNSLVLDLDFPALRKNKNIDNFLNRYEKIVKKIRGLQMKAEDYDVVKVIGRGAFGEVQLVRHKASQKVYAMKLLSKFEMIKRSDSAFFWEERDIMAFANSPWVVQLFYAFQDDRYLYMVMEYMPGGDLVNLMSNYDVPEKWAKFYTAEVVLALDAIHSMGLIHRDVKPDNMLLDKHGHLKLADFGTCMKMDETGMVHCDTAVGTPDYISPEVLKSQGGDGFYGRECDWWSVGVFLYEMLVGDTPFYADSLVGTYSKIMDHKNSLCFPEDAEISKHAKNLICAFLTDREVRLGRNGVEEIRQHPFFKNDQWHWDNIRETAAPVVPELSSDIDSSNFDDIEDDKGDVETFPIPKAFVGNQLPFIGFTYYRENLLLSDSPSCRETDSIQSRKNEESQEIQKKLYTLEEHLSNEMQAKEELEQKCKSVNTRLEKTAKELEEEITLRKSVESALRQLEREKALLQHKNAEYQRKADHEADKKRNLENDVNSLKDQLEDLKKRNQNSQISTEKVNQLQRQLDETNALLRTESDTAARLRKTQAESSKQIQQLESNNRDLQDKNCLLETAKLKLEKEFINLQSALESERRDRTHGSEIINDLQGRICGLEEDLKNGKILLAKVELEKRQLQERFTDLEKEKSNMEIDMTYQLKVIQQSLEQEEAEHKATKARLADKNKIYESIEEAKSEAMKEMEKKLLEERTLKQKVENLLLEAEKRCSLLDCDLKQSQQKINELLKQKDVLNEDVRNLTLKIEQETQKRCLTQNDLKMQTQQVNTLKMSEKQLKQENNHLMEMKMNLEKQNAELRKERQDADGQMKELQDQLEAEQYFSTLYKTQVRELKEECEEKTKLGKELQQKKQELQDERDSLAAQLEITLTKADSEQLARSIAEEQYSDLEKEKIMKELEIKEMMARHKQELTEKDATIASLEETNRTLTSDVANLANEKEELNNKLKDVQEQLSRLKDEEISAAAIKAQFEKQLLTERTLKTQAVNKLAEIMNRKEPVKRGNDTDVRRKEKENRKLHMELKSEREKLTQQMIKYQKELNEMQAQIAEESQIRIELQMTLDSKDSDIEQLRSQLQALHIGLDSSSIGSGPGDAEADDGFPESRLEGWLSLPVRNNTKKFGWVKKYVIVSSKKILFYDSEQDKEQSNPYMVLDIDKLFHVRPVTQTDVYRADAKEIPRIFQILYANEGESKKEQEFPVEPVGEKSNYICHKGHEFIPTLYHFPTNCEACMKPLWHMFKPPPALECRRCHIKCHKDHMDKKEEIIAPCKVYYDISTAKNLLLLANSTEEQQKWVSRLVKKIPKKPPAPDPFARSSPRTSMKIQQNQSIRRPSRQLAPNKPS
row,SMILES,IC50 [µM]
1,Cc1cc(S(C)(=O)=O)ccc1C(=O)Nc1cc2cc[nH]c(=O)c2cc1Cl,< 1
2,O=C(Nc1cc2cc[nH]c(=O)c2cc1Br)[C@H]1CNC[C@@H]1c1ccccc1,< 1
3,CSCCC(=O)Nc1cc2cc[nH]c(=O)c2cc1Cl,< 1
4,N[C@@H](C(=O)Nc1ccc2c(=O)[nH]ccc2c1)c1ccc(Cl)cc1,< 1
5,Cc1cc(C(=O)Nc2ccc3c(=O)[nH]cnc3c2)n(C)n1,< 1
6,N[C@H]1CCC[C@H](C(=O)Nc2cc3cc[nH]c(=O)c3cc2Cl)C1,< 1
7,CNC(C)(C)C(=O)Nc1ccc2c(=O)[nH]ccc2c1,< 1
8,CC(C)(Oc1ccc(Cl)cc1)C(=O)Nc1ccc2c(=O)[nH]ccc2c1,< 1
9,CN1CCN(CC(=O)Nc2cc3cc[nH]c(=O)c3cc2Cl)CC1,< 1
10,N[C@@H](CC1CCCCC1)C(=O)Nc1cc2cc[nH]c(=O)c2cc1Cl,< 1
11,O=C(Nc1cc2cc[nH]c(=O)c2cc1Cl)c1ccc2c(c1)CCNC2,< 1
12,Cc1cc(S(=O)(=O)N2CCNCC2)ccc1C(=O)Nc1cc2cc[nH]c(=O)c2cc1Cl,< 1
13,O=C(Nc1cc2cc[nH]c(=O)c2cc1Cl)[C@H]1CNC[C@@H]1c1ccc(Cl)cc1,< 1
14,C[C@@H](Oc1ccccc1)C(=O)Nc1cc2cc[nH]c(=O)c2cc1Cl,< 1
15,O=C(CNCc1ccncc1)Nc1cc2cc[nH]c(=O)c2cc1Cl,< 1
16,N[C@H](Cc1cccc2ccccc12)C(=O)Nc1cc2cc[nH]c(=O)c2cc1Cl,< 1
17,O=C(Nc1ccc2c(=O)[nH]cnc2c1)[C@H]1CCCN1,< 1
18,CN(C)CC(=O)Nc1ccc2c(=O)[nH]ccc2c1,< 1
19,O=C(COc1ccc(Cl)cc1)Nc1ccc2c(=O)[nH]ccc2c1,< 1
20,N[C@H](Cc1ccc2ccccc2c1)C(=O)Nc1cc2cc[nH]c(=O)c2cc1Cl,< 1
21,O=C(O)CC(C(=O)Nc1cc2cc[nH]c(=O)c2cc1Cl)c1ccccc1 (stereo not given),< 1
22,CCN(CCN(C)C)C(C(=O)Nc1cc2cc[nH]c(=O)c2cc1Cl)c1ccccc1 (stereo not given),< 1

row,SMILES,IC50 [µM]
1,O=C(Nc1cc2cc[nH]c(=O)c2cc1Cl)c1ccccc1CN1CCOCC1,< 1
2,Cc1ccccc1C(=O)Nc1cc2cc[nH]c(=O)c2cc1Cl,< 1
3,O=C(Nc1cc2cc[nH]c(=O)c2cc1Br)[C@H]1CNC[C@@H]1c1ccc(Cl)cc1,< 1
4,CC(C(=O)Nc1cc2cc[nH]c(=O)c2cc1Cl)N1CCSCC1 (stereo not given),< 1
5,CC[C@@H](C)[C@H](N)C(=O)Nc1cc2cc[nH]c(=O)c2cc1Cl,< 1
6,C[C@](O)(C(=O)Nc1ccc2c(=O)[nH]cnc2c1)c1ccc(Cl)cc1,< 1
7,C[C@H](Oc1ccccc1)C(=O)Nc1cc2cc[nH]c(=O)c2cc1Cl,< 1
8,CCN(C)C(C(=O)Nc1cc2cc[nH]c(=O)c2cc1Cl)c1ccccc1 (stereo not given),< 1
9,COc1cc2c(=O)[nH]ccc2cc1NC(=O)[C@H](OC)c1ccccc1,< 1
10,CC(C)(C)C(=O)Nc1cc2cc[nH]c(=O)c2cc1Cl,< 1
11,O=C(Nc1cc2cc[nH]c(=O)c2cc1Cl)c1c(F)ccc(F)c1F,< 1
12,Cc1onc(-c2ccccc2)c1C(=O)Nc1cc2cc[nH]c(=O)c2cc1Cl,< 1
13,CC(C)(C)NCC(=O)Nc1cc2cc[nH]c(=O)c2cc1Cl,< 1
14,O=C(Nc1cc2cc[nH]c(=O)c2cc1Cl)c1ccc(Br)cc1Cl,< 1
15,N#Cc1ccccc1C(=O)Nc1cc2cc[nH]c(=O)c2cc1Cl,< 1
16,O=C(Nc1cc2cc[nH]c(=O)c2cc1Cl)c1ccc(N2CCOCC2)cc1Cl,< 1
17,CN1CCN(Cc2ccccc2C(=O)Nc2cc3cc[nH]c(=O)c3cc2Cl)CC1,< 1
18,O=C(Nc1cc2cc[nH]c(=O)c2cc1Cl)c1ccc(Cl)cc1Cl,< 1
19,CN(CC(=O)Nc1ccc2c(=O)[nH]cnc2c1)C1CCCCC1,< 1
20,O=C(Nc1cc2cc[nH]c(=O)c2cc1Cl)[C@H]1CCCO1,< 1
21,O=C(Nc1cc2cc[nH]c(=O)c2cc1Cl)c1c(F)cc(F)cc1F,< 1
22,O=C(Nc1cc2cc[nH]c(=O)c2cc1Cl)[C@H](O)c1ccccc1,< 1

row,SMILES,IC50 [µM]
1,O=C(Nc1cc2cc[nH]c(=O)c2cc1Cl)[C@H]1CNC[C@@H]1c1ccccc1,< 1
2,Cc1ccc(C(=O)Nc2cc3cc[nH]c(=O)c3cc2Cl)c(Br)c1,< 1
3,O=C(Nc1cc2cc[nH]c(=O)c2cc1Cl)[C@H]1CNCC[C@@H]1c1ccccc1,< 1
4,O=C(Nc1cc2cc[nH]c(=O)c2cc1Cl)c1cccc(Cl)c1Cl,< 1
5,N[C@@H](C(=O)Nc1ccc2c(=O)[nH]ccc2c1)c1ccccc1,< 1
6,O=C(CN[C@]12C[C@H]3C[C@H](C[C@H](C3)C1)C2)Nc1cc2cc[nH]c(=O)c2cc1Cl,< 1
7,CO[C@H](C(=O)Nc1cc2cc[nH]c(=O)c2cc1Cl)c1ccccc1,< 1
8,O=C(Nc1cc2cc[nH]c(=O)c2cc1Cl)C1CCN(Cc2ccncc2)CC1,< 1
9,O=C(Nc1cc2cc[nH]c(=O)c2cc1Cl)[C@H]1[C@@H]2CNC[C@@H]21,< 1
10,N[C@H](Cc1ccccc1)C(=O)Nc1ccc2c(=O)[nH]cnc2c1,< 1
11,COc1cc2c(=O)[nH]ccc2cc1NC(=O)[C@@H]1CCC[C@H](N)C1,< 1
12,O=c1[nH]ccc2cc(NC(=O)[C@H]3CC[C@H](C(=O)O)CC3)c(Cl)cc12,< 1
13,O=C(CNCC1CC1)Nc1ccc2c(=O)[nH]cnc2c1,< 1
14,O=C(Nc1ccc2c(=O)[nH]ccc2c1Cl)[C@H]1CNC[C@@H]1c1ccccc1,< 1
15,O=C(Nc1cc2cc[nH]c(=O)c2cc1Cl)c1cccnc1Sc1ccccc1,< 1
16,CS(=O)(=O)c1ccc(C(=O)Nc2cc3cc[nH]c(=O)c3cc2Cl)c(Cl)c1,< 1
17,N[C@H](Cc1ccncc1)C(=O)Nc1cc2cc[nH]c(=O)c2cc1Cl,< 1
18,N[C@@H](C(=O)Nc1ccc2c(=O)[nH]ccc2c1)C1CCCCC1,< 1
19,O=C(Nc1ccc2c(=O)[nH]ccc2c1)c1cccnc1Sc1ccccc1,< 1
20,O=c1[nH]ccc2cc(NC(=O)[C@H]3CC[C@@H](C(=O)O)CC3)c(Cl)cc12,< 1
21,O=C(Nc1cc2cc[nH]c(=O)c2cc1Cl)C1CCN(C2CCCCC2)CC1,< 1
22,O=C(Nc1cc2cc[nH]c(=O)c2cc1Cl)[C@@H]1CCCNC1,< 1

row,SMILES,IC50 [µM]
1,C[C@@](O)(C(=O)Nc1cc2cc[nH]c(=O)c2cc1Cl)c1ccccc1,< 1
2,O=C(Nc1cc2cc[nH]c(=O)c2cc1Cl)c1cc([N+](=O)[O-])ccc1Cl,< 1
3,CC1(C(=O)Nc2cc3cc[nH]c(=O)c3cc2Cl)CCNCC1,< 1
4,O=C(Nc1cc2cc[nH]c(=O)c2cc1Cl)C(NCC1CC1)c1ccccc1 (stereo not given),< 1
5,O=C(Nc1ccc2c(=O)[nH]cnc2c1)C(NC1CC1)c1ccccc1 (stereo not given),< 1
6,O=C(Nc1cc2cc[nH]c(=O)c2cc1Cl)c1ccc([N+](=O)[O-])cc1C(F)(F)F,< 1
7,O=C(Nc1cc2cc[nH]c(=O)c2cc1Cl)[C@H](O)C1CCCCC1,< 1
8,NCCCS(=O)(=O)c1ccc(C(=O)Nc2cc3cc[nH]c(=O)c3cc2Cl)c(Cl)c1,< 1
9,O=C(Nc1cc2cc[nH]c(=O)c2cc1Cl)c1ccccc1Br,< 1
10,O=C(CNCCc1cccs1)Nc1ccc2c(=O)[nH]cnc2c1,< 1
11,O=C(Nc1cc2cc[nH]c(=O)c2cc1Cl)C1CNCCN1 (stereo not given),< 1
12,N[C@H](CC1CCCCC1)C(=O)Nc1cc2cc[nH]c(=O)c2cc1Cl,< 1
13,O=C(Nc1cc2cc[nH]c(=O)c2cc1Cl)C(O)c1ccccc1 (stereo not given),< 1
14,C[C@](O)(C(=O)Nc1cc2cc[nH]c(=O)c2cc1Cl)c1ccc(Cl)cc1,< 1
15,O=C(Nc1cc2cc[nH]c(=O)c2cc1Cl)c1cccc2c1CNCC2,< 1
16,CCOC(=O)CC(=O)Nc1cc2cc[nH]c(=O)c2cc1Cl,< 1
17,CS(=O)(=O)CC(=O)Nc1cc2cc[nH]c(=O)c2cc1Cl,< 1
18,CN1CCC(C(=O)Nc2ccc3c(=O)[nH]ccc3c2)CC1,< 1
19,O=C(Nc1cc2cc[nH]c(=O)c2cc1Cl)C1(c2ccccc2)CCNC1 (stereo not given),< 1
20,O=C(Nc1cc2cc[nH]c(=O)c2cc1Cl)[C@@H](O)C1CCCCC1,< 1
21,O=C(Nc1cc2cc[nH]c(=O)c2cc1Cl)[C@H]1CNC[C@@H]1c1cccc(Br)c1,< 1
22,O=C(Nc1ccc2c(=O)[nH]cnc2c1)C1CCNCC1,< 1

row,SMILES,IC50 [µM]
1,CC(C)[C@@H](N)C(=O)Nc1ccc2c(=O)[nH]cnc2c1,< 1
2,CCOC(=O)CCC(=O)Nc1ccc2c(=O)[nH]ccc2c1,< 1
3,CO[C@@H](C(=O)Nc1cc2cc[nH]c(=O)c2cc1Cl)c1ccccc1,< 1
4,CN1CCC(C(=O)Nc2cc3cc[nH]c(=O)c3cc2C#N)CC1,< 1
5,CN(C)C(C(=O)Nc1cc2nc[nH]c(=O)c2cc1Cl)c1ccccc1 (stereo not given),< 1
6,N[C@H](Cc1ccc(Cl)cc1)C(=O)Nc1cc2cc[nH]c(=O)c2cc1Cl,< 1
7,CC(C)[C@@H](O)C(=O)Nc1cc2cc[nH]c(=O)c2cc1Cl,< 1
8,O=C(Nc1ccc2c(=O)[nH]ccc2c1)[C@@H]1CCCNC1,< 1
9,O=C(O)C(C(=O)Nc1cc2cc[nH]c(=O)c2cc1Cl)c1ccccc1 (stereo not given),< 1
10,C[C@](O)(C(=O)Nc1cc2nc[nH]c(=O)c2cc1Cl)c1ccc(Cl)cc1,< 1
11,N[C@H]1C[C@H](C(=O)Nc2cc3cc[nH]c(=O)c3cc2Cl)C1,< 1
12,O=C(Nc1cc2cc[nH]c(=O)c2cc1Cl)C(=O)c1ccccc1,< 1
13,O=C(Nc1cc2cc[nH]c(=O)c2cc1Cl)c1cccc([N+](=O)[O-])c1Cl,< 1
14,N[C@@H](Cc1ccccc1)C(=O)Nc1ccc2c(=O)[nH]cnc2c1,< 1
15,N[C@H]1CC[C@@](C(=O)Nc2cc3cc[nH]c(=O)c3cc2Cl)(c2ccc(Cl)cc2)CC1,< 1
16,O=C(Nc1cc2cc[nH]c(=O)c2cc1Cl)C1CCOCC1,< 1
17,N[C@H]1C[C@@H](C(=O)Nc2cc3cc[nH]c(=O)c3cc2Cl)C1,< 1
18,NC(C(=O)Nc1cc2cc[nH]c(=O)c2cc1Cl)c1cccc(Cl)c1 (stereo not given),< 1
19,CC(C)OC(=O)Nc1cc2cc[nH]c(=O)c2cc1Cl,< 1
20,CC(C)C(C(=O)Nc1cc2cc[nH]c(=O)c2cc1Cl)c1ccc(Cl)cc1 (stereo not given),< 1
21,CC(C)(C(=O)Nc1cc2cc[nH]c(=O)c2cc1Cl)c1ccccc1,< 1
22,O=C(Nc1cc2cc[nH]c(=O)c2cc1Cl)c1ccc2c(c1)CNCC2,< 1
